These results are taken from patent US6797692B1, “Use of glutamate antagonists for the treatment of cancer” (priority 1998, dated 2004).

Entries after “also recorded” stand apart in the source; their conditions may differ.

Assay [1] relates to human neuroblastoma cell line SK-N-AS. Kind of assay: Tumoricidal effect, necrotic cells by trypan blue staining. The format is cell-based. Particulars: Student's t test; for potentiation of tumoricidal effect (toxicity) of cisplatin: antagonist 10 μM plus cisplatin 10 μM; for potentiation of tumoricidal effect (toxicity) of thiotepa: antagonist 10 μM plus thiotepa 10 μM; for potentiation of tumoricidal effect (toxicity) of vinblastin: antagonist 10 μM plus vinblastin 1 μM. The method, then:
(§1) Cell lines and culture. Human neuroblastoma (SKNAS), human rhabdomyosarcoma/medulloblastoma (TE671), human brain astrocytoma (MOGGCCM), human thyroid carcinoma (FTC238), human lung carcinoma (A549), human colon adenocarcinoma (LS180) and human breast carcinoma (T47D) were obtained from European Collection of Cell Cultures (ECACC), Center for Applied Microbiology & Research, Salisbury, UK. SKNAS, TE671, T47D, LS180 were grown in 1:1 mixture of Dulbecco's Modified Eagle's Medium (DMEM; D 6421, Sigma, Ca^2+-concentration 1.05 mM) and Nutrient Mixture F-12 Ham (Ham's F-12; Sigma) supplemented with 10% Foetal Bovine Serum (FBS) (GIBCO). FTC238 was grown in the same culture medium suplemented with 5% FBS. MOGGCCM and A549 were grown in 2:1 mixture of DMEM (D 6046, Sigma, Ca^2+-concentration 1.8 mM):Ham's F-12 supplemented with 10% FBS. Cultures were kept at 37° C. in a 95% air-5% CO2 atmosphere. As Ca^2+-free medium, minimum essential medium M8167 from Sigma was used.
Assessment of tumoricidal effect. Quantitation of cell death was performed at 24, 48 or 72 hrs after exposure to the agents of interest following staining of the cells with trypan blue. This stain is taken up by necrotic cells. The numbers of necrotic cells/100 counted cells served as quantitative measure for tumoricidal effect (% of tumor cell death). For each agent or combination of agents and each time point 5 wells were analysed. Comparisons between groups was performed by means of Student's t-test.
(§2) Exposure to agents. Tumor cells were exposed to the following agents and concentrations: MK 801 (10-500 μM), GYKI 52466 (10-500 μM), Cisplatin (10 μM), Vinblastin (1 μM), Thiotepa (10 μM) alone or in combination with MK 801 (10 μM), GYKI 52466 (10 μM) or NBQX (10 μM).
Data represent the mean±SEM of necrotic cells visualized by trypan blue staining (n=5/group). The potentiating effect of all three glutamate receptor antagonists was most prominent after an exposure time of 72 h. *P<0.05; **P<0.01; ***P<0.001, Student's t test.
Data represent the mean±SEM of necrotic cells visualized by trypan blue staining (n=5/group). The potentiating effect of the NMDA- and both AMPA antagonists is most prominent after an exposure time of 72 h. *P<0.05;**P<0.01;***P<0.001, Student's t test.
Data represent the mean±SEM of necrotic cells visualized by trypan blue staining (n=5/group). The potentiating effect of the NMDA- and both AMPA antagonists is most prominent after an exposure time of 48 hrs. *P<0.05;**P<0.01;***P<0.001, Student's t test.

The test system of assay [2] is human tumor cell lines (SKNAS, TE671, MOGGCCM, FTC238, A549, LS180, T47D). Kind of assay: MTT assay of cell viability (antiproliferative effect). Type of assay: cell-based. The settings on record: 10-500 μM over 96 hrs, linear regression. The method, then:
as §1
Assessment of cell viability. The yellow tetrazolium salt MTT (3-4,5-dimethylthiazol-2-2,5-diphenyltetrazolium bromid) is metabolized by viable, metabolically active cells to purple formazan crystals. Tumor cells grown in 96 well multiplates were incubated over 4 hrs with MTT solution (Cell proliferation kit I, Boehringer Mannheim, Germany). Formazan crystals were solubilized overnight, according to the manufacturer's instructions, and the product was quantified spectrophotometrically by measuring absorbance at 570 nm wave length using a VICTOR Multilabel Counter (Wallach).
as §2
Cells were exposed to either culture medium alone (control) or dizocilpine (10-500 μM) over 96 hrs and viability was measured photometrically by means of the MTT assay. Data represent mean normalized optical densities±SEM of 6-8 measurements and were analyzed by means of linear regression. Abbreviations. SKNAS: human neuroblastoma; TE671: human rhabdomyosarcoma/medulloblastoma; MOGGCCM: human brain astrocytoma; FTC238: human thyroid carcinoma; A 549: human lung carcinoma; LS180: human colon adenocarcinoma; T47D: human breast carcinoma.
Cells were exposed to either culture medium alone (control) or GYKI52466 (10-500 μM) over 96 hrs and viability was measured photometrically by means of the MTT assay. Data represent mean normalized optical densities SEM of 68 measurements and were analyzed by means of linear regression. Abbreviations. […]
(In general: Tetrazolium dyes change colour on reduction, which living cells bring about.)

With `NS(=O)(=O)c1cccc2c1c([N+](=O)[O-])cc1nc(O)c(O)nc12` [NBQX, 2,3-dihydroxy-6-nitro-7-sulfaoylbenzo-(F)-quinoxaline], in assay [1], the “potentiation of tumoricidal effect (toxicity) of cisplatin” value (“potentiation … of cisplatin” below) was “significantly (P<0.05-0.001) potentiated; also recorded: significantly increase toxicity”, the “potentiation of tumoricidal effect (toxicity) of thiotepa” value (“potentiation … of thiotepa” for short) is “significantly (P<0.05-0.001) potentiated; also recorded: potentiate toxicity” and the “potentiation of tumoricidal effect (toxicity) of vinblastin” value (“potentiation … of vinblastin” for short) is recorded as “significantly (P<0.05-0.001) potentiated; also recorded: potentiate toxicity”.

In the case of `C[C@]12N[C@H](Cc3ccccc31)c1ccccc12` [MK 801], in assay [2], the “antiproliferative effect in human tumor cell lines (viability, MTT assay)” value (shortened to “antiproliferative effect”) is “significant concentration-dependent antiproliferative effect”. The “antiproliferative effect” value in assay [2] (listed as (+)dizocilpine) was “concentration dependent antiproliferative effect”. Also, in assay [1], the “potentiation … of cisplatin” value is “significantly (P<0.05-0.001) potentiated”, the “potentiation … of thiotepa” value was “significantly (P<0.05-0.001) potentiated” and the “potentiation … of vinblastin” value was “significantly (P<0.05-0.001) potentiated; also recorded: potentiate toxicity”. In assay [1] (listed as MK801), the “potentiation … of cisplatin” value was “significantly increase toxicity” and the “potentiation … of thiotepa” value is reported as “potentiate toxicity”.

In the case of `CC1=NN=C(c2ccc(N)cc2)c2cc3c(cc2C1)OCO3` [GYKI 52466], the “antiproliferative effect” value in assay [2] is recorded as “concentration dependent antiproliferative effect”. For the same molecule, the “antiproliferative effect” value in assay [2] (listed as GYK152466) is recorded as “significant concentration-dependent antiproliferative effect”. Besides, in assay [1], the “potentiation … of cisplatin” value is recorded as “significantly (P<0.05-0.001) potentiated; also recorded: significantly increase toxicity”, the “potentiation … of thiotepa” value is “significantly (P<0.05-0.001) potentiated; also recorded: potentiate toxicity” and the “potentiation … of vinblastin” value is given as “significantly (P<0.05-0.001) potentiated; also recorded: potentiate toxicity”.
